Assay results from patent US20030004355A1, “Fused pyrazolyl compounds” (priority 2001, published 2003).

Assays:
[1] = test system: platelets; test: Inhibition of platelet aggregation (turbidimetric, washed platelets); type: cell-based; conditions: washed rabbit platelets, AA; for inhibitory effect on platelet aggregation induced by different inducers: inducers thrombin, collagen, PAF, read 5 minutes after the inducer
Experimental: In vitro assays can be used to evaluate the efficacy of a fused pyrazolyl compound of this invention in inhibiting platelet aggregation; which is attributable to low intracellular cGMP levels. For example, the compound is incubated in a platelet suspension containing a platelet aggregation factor, and the degree of aggregation is measured turbidimetrically with a dual-channel lumiaggregometer and converted into a percentage value by the method described in Teng et al., Biochem. Biophys Acta. 1987, 924:375-382.
EDTA was added to blood collected from the marginal ear vein of a rabbit to reach a final EDTA concentration of 6 mM. The EDTA-containing blood was then centrifuged at 90×g for 10 minutes at the room temperature. The supernatant, a platelet-rich plasma, was further centrifuged at 500×g for 10 minutes. The platelet pellets thus obtained were washed with a solution containing EDTA (2 mM) and serum albumin (3.5 mg/mL), and then centrifuged again at 500×g for 10 minutes. The pellets were then washed with an EDTA-free Tyrode's solution of the following composition (mM): NaCl (136.8), KCl (2.8), NaHCO3 (11.9), MgCl2 (1.1), NaH2PO4 (0.33), CaCl2 (1.0), and glucose (11.2). After centrifugation under the same conditions, the platelet pellets were suspended in the EDTA-free Tyrode's solution described above. The platelet number was counted by a Coulter Counter (Model ZM) and adjusted to 4.5×10^8 platelets/mL.
A compound to be tested was added to 4 platelet suspensions, which were then incubated at 37° C. for 3 minutes under a stirring condition (900 rpm). One minute after the stirring, four aggregation inducers, i.e., thrombin, collagen, arachidonic acid (AA), and platelet aggregation factor (PAF), were respectively added into the 4 suspensions, causing the platelets to aggregate. Platelet aggregation in each suspension was measured with a dual-channel lumiaggregometer (Model 1020, Payton, Canada) by the turbidimetric method described in Born et al., J. Physiol. 1963, 168:178-195. The percentage values of the platelet aggregation, determined 5 minutes after the addition of each aggregation inducer, were calculated by the method described in Teng et al., Biochem. Biophys Acta. 1987, 924:375-382.

[2] = test system: sGC; test: Activation of sGC (conversion of [α-32P]GTP to cGMP by platelet lysate supernatant); type: biochemical; conditions: 100 μM compound; washed rabbit platelet supernatant; 30° C., 10 minutes
Experimental: The efficacy of a compound in activating sGC can be evaluated in vitro by the following assay. Washed platelets are suspended in a buffer and disrupted by sonication. The lysate is then centrifuged to obtain a supernatant which is used as the source of sGC. An aliquot of the supernatant and the compound to be tested are added into a buffer containing GTP, a substrate for sGC. The activity of sGC can be determined by the method described in Gerzer et al., J. Pharmacol. Exp. Ther. 1983, 226:180.
Washed rabbit platelets were prepared by the method described in Teng et al., Thromb. Haemost. 1988, 59:304. They were then suspended in 50 mM pH 7.4 Tris-HCl buffer and subsequently disrupted by sonication. The lysate thus obtained was centrifuged at 39,000×g at 4° C. for 20 minutes, and the supernatant was used as the source of sGC. Two 50 μL aliquots of the supernatant were respectively added to two 150 μL pH 7.4 Tris-HCl (50 mM) buffer solutions, each containing GTP (0.2 mM, containing 1×10^6 cpm [α-^32P]GTP), MgCl2 (5 mM), cGMP (2.5 mM), creatine phosphate (15 mM), and creatine phosphokinase (30 μg). One of the two solutions also contained 100 μM compound 3. After incubation at 30° C. for 10 minutes, conversion of GTP to cGMP by sGC was terminated with HCl (200 μL, 0.5 N). […] Radioactivity ([^32P]cGTP) was measured in a liquid scintillation counter to determine the amount of […].

[3] = test system: PDEs; test: Inhibition of PDE (conversion of [3H]cGMP by platelet lysate supernatant); type: biochemical; conditions: 10 μM compound; washed human platelet supernatant; 10 μM cGMP; 37° C., 30 minutes
Experimental: The efficacy of a compound in inhibiting PDEs can be evaluated in vitro by the following assay. Washed platelets are suspended in a Tris-HCl buffer and disrupted by sonication. The lysate is centrifuged to obtain a supernatant which contains PDEs. An aliquot of the supernatant is taken to prepare a PDE-containing solution. The compound to be tested and cGMP (a substrate for PDE) are added to the solution. Ophiophagus hannah snake venom is subsequently added to remove the phosphate in 5′-GMP (converted from cGMP by PDEs) to form uncharged guanosine. An ion-exchange resin is used to remove the remaining cGMP. The cGMP-free solution is then centrifuged, and an aliquot of the supernatant is taken for quantification of the uncharged guanosine in a liquid scintillation counter. Activity of PDEs is evaluated based on the amount of the uncharged guanosine.
Washed human platelets were prepared by the method described in Teng et al., Biochem. Biophys. Acta. 1989, 990:315-320. They were then suspended in 50 mM pH 7.4 Tris-HCl buffer (containing 5 mM MgCl2) and subsequently disrupted by sonication at 4° C. […] Each cGMP-free solution thus obtained was then centrifuged, and an aliquot (0.5 mL) of the supernatant was taken for quantification of uncharged guanosine in a liquid scintillation counter.

COC(=O)c1ccc(-c2nn(Cc3ccccc3)c3cc4c(cc23)OCO4)o1 [Compound 1, 1-benzyl-3-(5′-methoxycarbonyl-2′-furyl)-5,6-methylenedioxoindazole]
inhibitory effect on platelet aggregation induced by different inducers [1]: showed inhibitory effect on platelet aggregation

O=C(O)c1ccc(-c2nn(Cc3ccccc3)c3cc4c(cc23)OCO4)o1 [Compound 2, 1-benzyl-3-(5′-hydroxycarbonyl-2′-furyl)-5,6-methylenedioxoindazole]
inhibitory effect on platelet aggregation induced by different inducers [1]: showed inhibitory effect on platelet aggregation

OCc1ccc(-c2nn(Cc3ccccc3)c3cc4c(cc23)OCO4)o1 [Compound 3, 1-benzyl-3-(5′-hydroxymethyl-2′-furyl)-5,6-methylenedioxoindazole]
activation of sGC [2]: effective activator of sGC
relative effectiveness in inhibiting platelet aggregation among compounds 1-4 ([1]; aggregation induced by thrombin, collagen, and PAF): the most effective
inhibitory effect on platelet aggregation induced by different inducers [1]: showed inhibitory effect on platelet aggregation
inhibition of PDEs [3]: potent inhibitor of PDEs

COCc1ccc(-c2nn(Cc3ccccc3)c3cc4c(cc23)OCO4)o1 [Compound 4, 1-benzyl-3-(5′-methoxymethyl-2′-furyl)-5,6-methylenedioxoindazole]
inhibitory effect on platelet aggregation induced by different inducers [1]: showed inhibitory effect on platelet aggregation
